Laboratory results: publication PMC2720952 (BMC Evolutionary Biology, 2009)

Legend:
C. pneumoniae AaxC = C. pneumoniae AaxC (Chlamydia pneumoniae, UniProt Q9Z6M8); conditions: 1 mM L-arginine, E medium pH 5, 37 °C, 20 min; AaxB co-expressed; labelled compound
[1] = biological target: AaxC (CT374) from C. trachomatis D/UW-3 (Chlamydia trachomatis, UniProt O84379); conditions: 1 mM L-arginine, E medium pH 5, 37 °C, 20 min; AaxB co-expressed; labelled compound
Chain of AaxC (CT374) from C. trachomatis D/UW-3 (O84379 whole entry): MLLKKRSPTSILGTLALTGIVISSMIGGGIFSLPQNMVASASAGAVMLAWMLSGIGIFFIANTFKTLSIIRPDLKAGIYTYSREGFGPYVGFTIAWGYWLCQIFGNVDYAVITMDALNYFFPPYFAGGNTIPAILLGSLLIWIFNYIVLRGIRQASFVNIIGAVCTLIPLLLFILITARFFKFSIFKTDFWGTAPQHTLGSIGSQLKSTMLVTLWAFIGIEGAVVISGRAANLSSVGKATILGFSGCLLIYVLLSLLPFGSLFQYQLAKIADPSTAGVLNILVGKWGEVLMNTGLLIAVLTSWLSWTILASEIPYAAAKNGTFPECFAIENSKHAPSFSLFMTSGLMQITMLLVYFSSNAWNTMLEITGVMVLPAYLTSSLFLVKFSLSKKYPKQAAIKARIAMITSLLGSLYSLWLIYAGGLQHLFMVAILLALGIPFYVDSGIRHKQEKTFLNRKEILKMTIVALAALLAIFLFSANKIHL

Chain of C. pneumoniae AaxC (Q9Z6M8 whole entry): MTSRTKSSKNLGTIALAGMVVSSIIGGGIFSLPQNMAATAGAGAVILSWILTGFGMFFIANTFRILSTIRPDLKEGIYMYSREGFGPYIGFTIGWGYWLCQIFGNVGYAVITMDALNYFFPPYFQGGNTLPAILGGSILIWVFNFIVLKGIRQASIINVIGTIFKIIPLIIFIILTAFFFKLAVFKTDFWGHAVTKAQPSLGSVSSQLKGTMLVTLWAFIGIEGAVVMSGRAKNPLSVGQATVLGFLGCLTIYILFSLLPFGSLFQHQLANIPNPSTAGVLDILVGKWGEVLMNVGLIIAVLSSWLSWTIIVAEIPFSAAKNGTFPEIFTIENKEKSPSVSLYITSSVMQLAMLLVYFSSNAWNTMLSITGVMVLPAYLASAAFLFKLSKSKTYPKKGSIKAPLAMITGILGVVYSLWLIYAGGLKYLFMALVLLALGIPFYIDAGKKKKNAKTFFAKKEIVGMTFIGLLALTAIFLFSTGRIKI

## N=C(N)NCCC[C@H](N)C(=O)O [L-arginine]
C. pneumoniae AaxC
  uptake of L-[2,3,4,5-3H]arginine by E. coli DEG0147 cells, filtration: A significant difference in samples expressing C. pneumoniae aaxBC (relative to pBAD/HisA)
[1]
  uptake of L-[2,3,4,5-3H]arginine by E. coli DEG0147 cells, filtration: cells expressing D/UW-3 strain aaxBC genes showed significantly enhanced uptake
